In ChEMBL document CHEMBL3244052, “Conformational analogues of dopamine. Synthesis and pharmacological activity of (E)- and (Z)-2-(3,4-dihydroxyphenyl)cyclopropylamine hydrochlorides” (J Med Chem, 1979) one finds EC50, Activity and ED50 data, which are given here for five compounds.

Assay [1] in a line: Agonist activity at alpha-adrenergic receptor in rabbit thoracic aorta assessed as […] contraction. Type of assay: tissue-based, Oryctolagus cuniculus.
Assay [2] has as its system Canis familiaris. Briefly: Cardiac stimulant activity in iv dosed dog assessed as dose producing 50% increase in contractile force. Type of assay: functional, Canis lupus familiaris.
Assay [3] concerns Canis familiaris. Nature of the assay: Dopaminergic activity in mongrel dog assessed as renal vasodilation up to 4.96 x 10^-6 M administered to renal artery. Type of assay: functional, organism-based. Conditions: Canis lupus familiaris.
For assay [4], the system named is Canis familiaris. Nature of the assay: Cardiac stimulant activity in iv dosed dog assessed as increase in heart rate. Type of assay: functional, Canis lupus familiaris.

Activity calls are given as the source filed them. The rule behind the calls is not given here.

With `CNC[C@H](O)c1cccc(O)c1.Cl` [PHENYLEPHRINE HYDROCHLORIDE], the EC50 in assay [1] is 2.3 ×10⁻⁷ mol.

Regarding `Cl.N[C@@H]1C[C@@H]1c1ccc(O)c(O)c1` (racemic), the Activity is 312.3 ×10⁻⁸ mol/kg in the assay on Canis familiaris [2] and 32 bpm with Canis familiaris [4]. Besides, the ED50 entry in the assay on Canis familiaris [3] was “inactive”. Also, the EC50 in assay [1] is listed as 457 ×10⁻⁷ mol.

As for `CC(C)NCC(O)c1ccc(O)c(O)c1.Cl` (centres undefined) [ISOPROTERENOL HYDROCHLORIDE], the Activity in the assay on Canis familiaris [2] is given as 0.014 ×10⁻⁸ mol/kg; in the assay with Canis familiaris [4], 16 bpm.

Consider `Cl.NCCc1ccc(O)c(O)c1` [DOPAMINE HYDROCHLORIDE], for which the Activity with Canis familiaris [2] is 4.8 ×10⁻⁸ mol/kg; in the assay on Canis familiaris [4] it was 5 bpm. Besides, the EC50 in assay [1] is recorded as 102 ×10⁻⁷ mol.

On to `Cl.N[C@@H]1C[C@H]1c1ccc(O)c(O)c1` (racemic), for which the figures for the Activity with Canis familiaris [2] and with Canis familiaris [4] were 19.5 ×10⁻⁸ mol/kg and -2 bpm, respectively. In the assay on Canis familiaris [3], the ED50 entry was “inactive”. For the same compound, the EC50 in assay [1] came out at 94 ×10⁻⁷ mol.
